Source: article PMC9936921 (Oncogene, 2018)
Like-named read-outs stand apart in the source and are kept apart here.

How the values were obtained:
Assay in all cases: SPR
Assay type in all cases: binding
CD99 [1] = biological target: T1, CD99 (Homo sapiens, UniProt P14209)
T1 sequence (P14209 23-185): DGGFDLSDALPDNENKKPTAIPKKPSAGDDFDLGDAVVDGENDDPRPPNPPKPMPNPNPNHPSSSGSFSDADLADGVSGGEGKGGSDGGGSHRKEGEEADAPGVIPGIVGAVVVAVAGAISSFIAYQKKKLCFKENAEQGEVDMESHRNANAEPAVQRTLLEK

CD99 [2] = biological target: CD99 (Homo sapiens, UniProt P14209); remark: listed apart in the source
CD99 [3] = biological target: T1, CD99; remark: listed apart in the source

Structure (SMILES): Nc1nc(Cl)nc2c1ncn2[C@@H]1O[C@H](CO)[C@@H](O)[C@@H]1F [clofarabine]
- Kd (CD99 [1]): 5.3 ± 3.2 µM

Structure (SMILES): Nc1nc(Cl)nc2c1ncn2[C@H]1C[C@H](O)[C@@H](CO)O1 [cladribine]
- Kd (CD99 [2]): 3.8 ± 3.3 µM

Structure (SMILES): Nc1nc(Cl)nc2c1ncn2[C@@H]1O[C@H](COP(=O)(O)OP(=O)(O)OP(=O)(O)O)[C@@H](O)[C@@H]1F [clofarabine-5’-triphosphate]
- Kd (CD99 [3]): 3.7 µM
